Assays:
bedstraw = test: Test B pre/postemergence bedstraw; type: in vivo, Galium aparine; details: Preemergence
Outline: (§1)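 Test chemicals in a non-phytotoxic solvent mixture with surfactant were sprayed preemergence onto planted seeds and postemergence onto plants 2 to 18 cm tall (1- to 4-leaf stage). After twelve to sixteen days in a greenhouse, injury was visually rated against untreated controls from 0 (no effect) to 10 (complete control).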

blackgrass = test: Test B pre/postemergence blackgrass; type: in vivo, Alopecurus myosuroides; details: Preemergence
Outline: as §1

surinam grass = test: Test B pre/postemergence surinam grass; type: in vivo, Brachiaria decumbens; details: Preemergence
Outline: as §1

cocklebur = test: Test B pre/postemergence cocklebur; type: in vivo, Xanthium strumarium; details: Preemergence
Outline: as §1

corn = test: Test B pre/postemergence corn; type: in vivo, Zea mays; details: Preemergence
Outline: as §1

crabgrass = test: Test B pre/postemergence crabgrass; type: in vivo, Digitaria sanguinalis; details: Preemergence
Outline: as §1

giant foxtail = test: Test B pre/postemergence giant foxtail; type: in vivo, Setaria faberii; details: Preemergence
Outline: as §1

morningglory = test: Test B pre/postemergence morningglory; type: in vivo, Ipomoea hederacea; details: Preemergence
Outline: as §1

pigweed = test: Test B pre/postemergence pigweed; type: in vivo, Amaranthus retroflexus; details: Preemergence
Outline: as §1

rape = test: Test B pre/postemergence rape; type: in vivo, Brassica napus; details: Preemergence
Outline: as §1

soybean = test: Test B pre/postemergence soybean; type: in vivo, Glycine max; details: Preemergence
Outline: as §1

sugar beet = test: Test B pre/postemergence sugar beet; type: in vivo, Beta vulgaris; details: Preemergence
Outline: as §1

velvetleaf = test: Test B pre/postemergence velvetleaf; type: in vivo, Abutilon theophrasti; details: Preemergence
Outline: as §1

wheat = test: Test B pre/postemergence wheat; type: in vivo, Triticum aestivum; details: Preemergence
Outline: as §1

wild oat = test: Test B pre/postemergence wild oat; type: in vivo, Avena fatua; details: Preemergence
Outline: as §1

purple nutsedge = test: Test B pre/postemergence purple nutsedge; type: in vivo, Cyperus rotundus; details: Preemergence
Outline: as §1

rice = test: Test B flood test rice; type: in vivo, Oryza sativa
Outline: (§2)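 Flood test on plants grown to the 2-leaf stage; treated plants kept in greenhouse twelve to sixteen days, then visually rated against controls on a 0 (no effect) to 10 (complete control) scale.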

smallflower flatsedge = test: Test B flood test smallflower flatsedge; type: in vivo, Cyperus difformis
Outline: as §2

duck salad = test: Test B flood test duck salad; type: in vivo, Heteranthera limosa
Outline: as §2

bamyardgrass = test: Test B flood test barnyardgrass; type: in vivo, Echinochloa crus-galli
Outline: as §2

[1] = Rate 125 g/ha, scale of 0 to 10 where 0 is no effect and 10 is complete control
[2] = Rate 250 g/ha, scale 0 to 10 (0 no effect, 10 complete control)
[3] = Rate 500 g/ha, scale of 0 to 10 where 0 is no effect and 10 is complete control
[4] = Rate 1000 g/ha, scale 0 to 10 (0 no effect, 10 complete control)
[5] = Rate 62 g/ha, flood test species, Pre-emergence, visual evaluation after twelve to sixteen days
[6] = Rate 125 g/ha, under heading Pre-emergence, flood test species, visual evaluation after twelve to sixteen days
[7] = Rate 250 g/ha, Pre-emergence (flood test species), scale 0 to 10, 0 is no effect, 10 is complete control
[8] = Rate 500 g/ha, Pre-emergence section of Table B, 0 to 10 scale (0 no effect, 10 complete control)

SMILES: COP(=O)(CCn1c(=O)on(C(=O)N(c2ccccc2)C(C)C)c1=O)OC [Compound 697]
- Plant response rating, Bedstraw (bedstraw; [1]): 0
- Plant response rating, Bedstraw (bedstraw; [2]): 0
- Plant response rating, Bedstraw (bedstraw; [3]): 0
- Plant response rating, Bedstraw (bedstraw; [4]): 0
- Plant response rating, Blackgrass (blackgrass; [1]): 0
- Plant response rating, Blackgrass (blackgrass; [2]): 2
- Plant response rating, Blackgrass (blackgrass; [3]): 6
- Plant response rating, Blackgrass (blackgrass; [4]): 10
- Plant response rating, B. signalgrass (surinam grass; [1]): 0
- Plant response rating, B. signalgrass (surinam grass; [2]): 0
- Plant response rating, B. signalgrass (surinam grass; [3]): 5
- Plant response rating, B. signalgrass (surinam grass; [4]): 9
- Plant response rating, Cocklebur (cocklebur; [2]): 0
- Plant response rating, Cocklebur (cocklebur; [3]): 0
- Plant response rating, Cocklebur (cocklebur; [4]): 0
- Plant response rating, Corn (corn; [1]): 0
- Plant response rating, Corn (corn; [2]): 0
- Plant response rating, Corn (corn; [4]): 0
- Plant response rating, Crabgrass (crabgrass; [1]): 0
- Plant response rating, Crabgrass (crabgrass; [2]): 4
- Plant response rating, Crabgrass (crabgrass; [4]): 9
- Plant response rating, Giant foxtail (giant foxtail; [1]): 0
- Plant response rating, Giant foxtail (giant foxtail; [4]): 10
- Plant response rating, Morningglory (morningglory; [1]): 0
- Plant response rating, Morningglory (morningglory; [4]): 5
- Plant response rating, Redroot pigweed (pigweed; [1]): 0
- Plant response rating, Redroot pigweed (pigweed; [4]): 0
- Plant response rating, Rape (rape; [1]): 0
- Plant response rating, Rape (rape; [4]): 0
- Plant response rating, Soybean (soybean; [1]): 0
- Plant response rating, Soybean (soybean; [4]): 0
- Plant response rating, Sugarbeets (sugar beet; [1]): 0
- Plant response rating, Sugarbeets (sugar beet; [4]): 0
- Plant response rating, Velvetleaf (velvetleaf; [1]): 0
- Plant response rating, Velvetleaf (velvetleaf; [4]): 2
- Plant response rating, Wheat (wheat; [1]): 0
- Plant response rating, Wheat (wheat; [4]): 7
- Plant response rating, Wild oats (wild oat; [1]): 0
- Plant response rating, Wild oats (wild oat; [4]): 9
- Plant response rating, Nutsedge (purple nutsedge; [1]): 0
- Plant response rating, Nutsedge (purple nutsedge; [4]): 0
- Plant response rating, Rice (0 to 10 scale, 0 is no effect, 10 is complete control) (rice; [5]): 0
- Rice plant response rating (0 to 10 scale, 0 is no effect, 10 is complete control) (rice; [6]): 0
- Rice plant response rating (rice; [7]): 0
- Rice plant response rating (rice; [8]): 0
- Plant response rating, S. Flatsedge (0 to 10 scale, 0 is no effect, 10 is complete control) (smallflower flatsedge; [5]): 0
- S. Flatsedge plant response rating (0 to 10 scale, 0 is no effect, 10 is complete control) (smallflower flatsedge; [6]): 0
- S. Flatsedge plant response rating (smallflower flatsedge; [7]): 0
- S. Flatsedge plant response rating (smallflower flatsedge; [8]): 0
- Plant response rating, Ducksalad (0 to 10 scale, 0 is no effect, 10 is complete control) (duck salad; [5]): 0
- Ducksalad plant response rating (0 to 10 scale, 0 is no effect, 10 is complete control) (duck salad; [6]): 0
- Ducksalad plant response rating (duck salad; [7]): 0
- Ducksalad plant response rating (duck salad; [8]): 0
- Plant response rating, Barnyardgrass (0 to 10 scale, 0 is no effect, 10 is complete control) (bamyardgrass; [5]): 0
- Barnyardgrass plant response rating (0 to 10 scale, 0 is no effect, 10 is complete control) (bamyardgrass; [6]): 0
- Barnyardgrass plant response rating (bamyardgrass; [7]): 0
- Barnyardgrass plant response rating (bamyardgrass; [8]): 0

From patent US6737383B1, “Herbicidal oxadiazolidines” (priority 1999, dated 2004)
